Assay results: PubChem BioAssay AID2060888 (Molecular Pharmacology Branch, DTP, NCI, 2025)
Each block holds one compound with its values, some of them ahead of it.

Test system: 695427-040-R-J1-PDC complex spheroid viability
Assay: Anticancer human tumor 695427-040-R-J1-PDC patient-derived colon adenocarcinoma cell line growth inhibition [RAS]
Conditions: for IC50: curve of first compound; for viability, T/C: stronger effect = lower value
Text: RAS pathway inhibitors in Combinations in Complex Spheroids
A high-throughput screen of multi-cell type tumor spheroids was designed to identify active combinations of RAS pathway inhibitors and targeted small molecules. Complex spheroids include a stromal component modeled by human endothelial cells (HUVEC) and fibroblasts modeled by human mesenchymal stem cells (MSCs). The concentration ranges selected for each drug and investigational agent were based upon clinically achievable concentrations if the clinical Cmax of the agent was known.
Compounds. The drugs and investigational agents: abemaciclib (NSC768073), cobimetinib (NSC768068), divarasib (GDC6063, NSC841802), docetaxel (NSC628503), GDC-1971 (RLY-1971, NSC841576), gemcitabine (NSC613327), inavolisib (NSC800729), ipatasertib (NSC767898), KB-0742 (NSC834161), MRTX-1133 (NSC836407), osimertinib (NSC779217), RMC-4630 (NSC839698), RMC-6236 (NSC851965), RMC-6291 (NSC852671), Ro-3306 (NSC812927), sapanisertib (NSC764658), SN-38 (NSC673596), staurosporine (NSC755774), SY5609 (NSC837396), and tovorafenib (DAY101, NSC766906), were obtained from the National Cancer Institute (NCI) Developmental Therapeutics Program Chemical Repository. The FDA-approved anticancer drug set is available from the NCI Developmental Therapeutics Program. […] The stock solutions were prepared in dimethyl sulfoxide (DMSO, Sigma-Aldrich, St. Louis, MO, cat. D2650) at 800-fold the tested concentration and stored at -70 degrees C prior to their use. All drugs and investigational agents were tested over a range starting from a high concentration at or near the clinical Cmax and decreasing in half-log increments. If the clinical Cmax for an agent had not been determined, the highest concentration tested was 10 microM.
Cell Culture. All cells were maintained in an incubator at 37 degrees C and 5% CO2 with 95% humidity. The PDC lines were cultured according to standard operating procedures established by the NCI PDMR. All PDCs were thawed and cultured in Matrigel-coated flasks prepared with a working solution of 1X Ham's F-12 nutrient mix, without supplementation (Invitrogen, Waltham, MA, cat. 11765054), 100 U/mL penicillin-streptomycin (Invitrogen, cat. 15140122), and 2.5% Matrigel (Corning Inc., Corning, NY, cat. 354248) for the first three passages. The 362531-283-R-J2-PDC and 782815-120-R-J1-PDC lines were cultured in 6C/Colon 1B media, which includes advanced DMEM/F-12 (Thermo Fisher Scientific, cat. 12634028), 10 mM HEPES (Thermo Fisher Scientific, cat. 15630080), 1X GlutaMAX supplement (Thermo Fisher Scientific, cat. 35050061), 0.1 mg/mL primocin (InvivoGen, San Diego, CA, cat. ant-pm-2), 10% defined fetal bovine serum, heat inactivated (HyClone Laboratories Inc., Logan, UT, cat. SH30070.03HI), 50% L-WRN conditioned media (ATCC, cat. CRL-3276), 1.25 mM N-Acetyl-L-cysteine (Sigma-Aldrich, cat. A9165), 10 mM nicotinamide (Sigma-Aldrich, cat. N0636), 1X B-27 supplement (Thermo Fisher Scientific, cat. 17504044), 1X N-2 supplement (Thermo Fisher Scientific, cat. 17502048), 50 ng/mL human EGF (Thermo Fisher Scientific, cat. PHG0311), and 10 microM Y-27632 dihydrochloride (Tocris Bioscience, cat. 1254). The K12877-001-R-J1-PDC line was cultured in 6I media, which includes all 6C/Colon 1B media plus 10 ng/mL human FGF-10 (PeproTech, cat. 100-26), 1 ng/mL human FGF-2 (PeproTech, cat. 100-18B), 1 µM prostaglandin E2 (Tocris Bioscience, cat. 2296), […] hydrocortisone (Sigma-Aldrich, cat. H4001), and […] bovine insulin (Sigma-Aldrich, cat. I6634). The K86415-001-R-J1-PDC line was cultured in 6D media, which includes all 6C/Colon 1B media components minus the L-WRN conditioned media. The 485176-168-R4-J1-PDC was cultured in PANC media, which includes all 6C/Colon 1B media plus 100 ng/mL human FGF-10 (PeproTech, cat. 100-26), 500 nM SB-431542 (Selleckchem, cat. S1067), and 10 nM gastrin (Tocris Bioscience, cat. 3006). […]
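Further: viability read after seven days of drug exposure.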
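Wherever viability, T/C is given: 100% = DMSO vehicle control viability.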

IC50 (second compound 0.000949 µM): 914 nM
IC50 (second compound 0.003 µM): 1370 nM
IC50 (second compound 0.00949 µM): 973 nM
IC50 (second compound 0.03 µM): 623 nM
IC50 (second compound 0.0949 µM): 940 nM
IC50 (second compound 0.3 µM): 665 nM
SMILES: NC1c2ccccc2OC12CCN(c1cnc3c(N4CCCc5ncccc54)n[nH]c3n1)CC2 (centres undefined) + CCn1c(-c2cccnc2C(C)OC)c2c3cc(ccc31)N1CCOC(CC(NC(=O)C(C(C)C)N(C)C(=O)C3(F)CCN(C(=O)C#CC(C)(C)N(C)C)CC3)C(=O)N3CCCC(N3)C(=O)OCC(C)(C)C2)C1
viability, T/C (second compound 0.000949 µM, first compound 0.0316 µM): 80.3%
viability, T/C (second compound 0.000949 µM, first compound 0.1 µM): 78.3%
viability, T/C (second compound 0.000949 µM, first compound 0.316 µM): 61.7%
viability, T/C (second compound 0.000949 µM, first compound 1 µM): 49.1%
viability, T/C (second compound 0.000949 µM, first compound 3.16 µM): 50.5%
viability, T/C (second compound 0.000949 µM, first compound 10 µM): 43.2%
viability, T/C (second compound 0.003 µM, first compound 0.0316 µM): 88.9%
viability, T/C (second compound 0.003 µM, first compound 0.1 µM): 70.5%
viability, T/C (second compound 0.003 µM, first compound 0.316 µM): 60.6%
viability, T/C (second compound 0.003 µM, first compound 1 µM): 45.7%
viability, T/C (second compound 0.003 µM, first compound 3.16 µM): 55.7%
viability, T/C (second compound 0.003 µM, first compound 10 µM): 38.6%
viability, T/C (second compound 0.00949 µM, first compound 0.0316 µM): 95.2%
viability, T/C (second compound 0.00949 µM, first compound 0.1 µM): 58.1%
viability, T/C (second compound 0.00949 µM, first compound 0.316 µM): 62.7%
viability, T/C (second compound 0.00949 µM, first compound 1 µM): 54.6%
viability, T/C (second compound 0.00949 µM, first compound 3.16 µM): 54.1%
viability, T/C (second compound 0.00949 µM, first compound 10 µM): 32.8%
viability, T/C (second compound 0.03 µM, first compound 0.0316 µM): 79.3%
viability, T/C (second compound 0.03 µM, first compound 0.1 µM): 63.4%
viability, T/C (second compound 0.03 µM, first compound 0.316 µM): 53%
viability, T/C (second compound 0.03 µM, first compound 1 µM): 45.1%
viability, T/C (second compound 0.03 µM, first compound 3.16 µM): 50.6%
viability, T/C (second compound 0.03 µM, first compound 10 µM): 35.3%
viability, T/C (second compound 0.0949 µM, first compound 0.0316 µM): 67%
viability, T/C (second compound 0.0949 µM, first compound 0.1 µM): 67.4%
viability, T/C (second compound 0.0949 µM, first compound 0.316 µM): 53.2%
viability, T/C (second compound 0.0949 µM, first compound 1 µM): 47.4%
viability, T/C (second compound 0.0949 µM, first compound 3.16 µM): 46.2%
viability, T/C (second compound 0.0949 µM, first compound 10 µM): 31.7%
viability, T/C (second compound 0.3 µM, first compound 0.0316 µM): 75.3%
viability, T/C (second compound 0.3 µM, first compound 0.1 µM): 46.4%
viability, T/C (second compound 0.3 µM, first compound 0.316 µM): 60.4%
viability, T/C (second compound 0.3 µM, first compound 1 µM): 51.8%
viability, T/C (second compound 0.3 µM, first compound 3.16 µM): 38.9%
viability, T/C (second compound 0.3 µM, first compound 10 µM): 27.1%

IC50 (second compound 0.0316 µM): 119 nM
IC50 (second compound 0.1 µM): 122 nM
IC50 (second compound 0.316 µM): 93.3 nM
IC50 (second compound 1 µM): 59.7 nM
IC50 (second compound 3.16 µM): 10.7 nM
IC50 (second compound 10 µM): < 0.949 nM
SMILES: CCc1c2c(nc3ccc(O)cc13)-c1cc3c(c(=O)n1C2)COC(=O)[C@]3(O)CC + C#Cc1c(F)ccc2cc(O)cc(-c3ncc4c(N5CC6CCC(C5)N6)nc(OCC56CCCN5CC(F)C6)nc4c3F)c12
viability, T/C (second compound 0.0316 µM, first compound 0.000949 µM): 89.1%
viability, T/C (second compound 0.0316 µM, first compound 0.003 µM): 89.8%
viability, T/C (second compound 0.0316 µM, first compound 0.00949 µM): 77.9%
viability, T/C (second compound 0.0316 µM, first compound 0.03 µM): 76%
viability, T/C (second compound 0.0316 µM, first compound 0.0949 µM): 53.5%
viability, T/C (second compound 0.0316 µM, first compound 0.3 µM): 30.4%
viability, T/C (second compound 0.1 µM, first compound 0.000949 µM): 96.1%
viability, T/C (second compound 0.1 µM, first compound 0.003 µM): 86.2%
viability, T/C (second compound 0.1 µM, first compound 0.00949 µM): 78.8%
viability, T/C (second compound 0.1 µM, first compound 0.03 µM): 72.2%
viability, T/C (second compound 0.1 µM, first compound 0.0949 µM): 58.7%
viability, T/C (second compound 0.1 µM, first compound 0.3 µM): 28.6%
viability, T/C (second compound 0.316 µM, first compound 0.000949 µM): 82%
viability, T/C (second compound 0.316 µM, first compound 0.003 µM): 79.9%
viability, T/C (second compound 0.316 µM, first compound 0.00949 µM): 70.7%
viability, T/C (second compound 0.316 µM, first compound 0.03 µM): 67.1%
viability, T/C (second compound 0.316 µM, first compound 0.0949 µM): 49.4%
viability, T/C (second compound 0.316 µM, first compound 0.3 µM): 25.7%
viability, T/C (second compound 1 µM, first compound 0.000949 µM): 73.8%
viability, T/C (second compound 1 µM, first compound 0.003 µM): 66.1%
viability, T/C (second compound 1 µM, first compound 0.00949 µM): 60.1%
viability, T/C (second compound 1 µM, first compound 0.03 µM): 59.8%
viability, T/C (second compound 1 µM, first compound 0.0949 µM): 45.8%
viability, T/C (second compound 1 µM, first compound 0.3 µM): 27.2%
viability, T/C (second compound 3.16 µM, first compound 0.000949 µM): 54.3%
viability, T/C (second compound 3.16 µM, first compound 0.003 µM): 52%
viability, T/C (second compound 3.16 µM, first compound 0.00949 µM): 48.7%
viability, T/C (second compound 3.16 µM, first compound 0.03 µM): 46%
viability, T/C (second compound 3.16 µM, first compound 0.0949 µM): 40.1%
viability, T/C (second compound 3.16 µM, first compound 0.3 µM): 24.9%
viability, T/C (second compound 10 µM, first compound 0.000949 µM): 37.4%
viability, T/C (second compound 10 µM, first compound 0.003 µM): 36.5%
viability, T/C (second compound 10 µM, first compound 0.00949 µM): 36.8%
viability, T/C (second compound 10 µM, first compound 0.03 µM): 28.1%
viability, T/C (second compound 10 µM, first compound 0.0949 µM): 26.2%
viability, T/C (second compound 10 µM, first compound 0.3 µM): 17.2%
